# Key:
# Experiment in all cases: relative viability (nuclei count vs DMSO), 5 days (fraction); higher = more cells survive
# [1] = compound: CC(C)N(CCCNC(=O)Nc1ccc(C(C)(C)C)cc1)C[C@H]1O[C@@H](n2ccc3c(N)ncnc32)[C@H](O)[C@@H]1O + CS(=O)(=O)CCNCc1ccc(-c2ccc3ncnc(Nc4ccc(OCc5cccc(F)c5)c(Cl)c4)c3c2)o1 [Lapatinib] (partner 2 µM)
# How it was run: (§1)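 Each reported value is a median over duplicate plates. It expresses relative viability: treated-well nuclei count divided by vehicle-well nuclei count. Lung cancer cell lines in 1536-well plates were dosed by pin tool a day after seeding, alone with one drug or with a fixed anchor-drug dose plus five library-drug doses (not always all listed) in √10 steps, and nuclei were counted after 5 days.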
# Shikonin + Pictilisib = compound: CC(C)=CC[C@@H](O)C1=CC(=O)c2c(O)ccc(O)c2C1=O [Shikonin] + CS(=O)(=O)N1CCN(Cc2cc3nc(-c4cccc5[nH]ncc45)nc(N4CCOCC4)c3s2)CC1 [Pictilisib] (partner 1 µM)
# How it was run: as §1
# Shikonin + Lapatinib = compound: CC(C)=CC[C@@H](O)C1=CC(=O)c2c(O)ccc(O)c2C1=O [Shikonin] + CS(=O)(=O)CCNCc1ccc(-c2ccc3ncnc(Nc4ccc(OCc5cccc(F)c5)c(Cl)c4)c3c2)o1 [Lapatinib] (partner 2 µM)
# How it was run: as §1
# [2] = compound: CC(C)N(CCCNC(=O)Nc1ccc(C(C)(C)C)cc1)C[C@H]1O[C@@H](n2ccc3c(N)ncnc32)[C@H](O)[C@@H]1O + Cc1nc(NC(=O)N2CCC[C@H]2C(N)=O)sc1-c1ccnc(C(C)(C)C(F)(F)F)c1 [Alpelisib] (partner 2 µM)
# How it was run: as §1
cell line,measurement,setting,value
NCI-H2023,relative viability,[1]; first compound 0.08 µM,0.735
same,relative viability,[1]; first compound 0.253 µM,0.425
same,relative viability,[1]; first compound 0.8 µM,0.752
same,relative viability,[1]; first compound 2.53 µM,0.787
same,relative viability,[1]; first compound 8 µM,0.592
same,relative viability,Shikonin + Pictilisib; first compound 0.01 µM,0.225
same,relative viability,Shikonin + Pictilisib; first compound 0.1 µM,0.31
same,relative viability,Shikonin + Pictilisib; first compound 0.3162 µM,0.223
same,relative viability,Shikonin + Pictilisib; first compound 1 µM,0.257
same,relative viability,Shikonin + Lapatinib; first compound 0.01 µM,0.806
same,relative viability,Shikonin + Lapatinib; first compound 0.1 µM,1.14
same,relative viability,Shikonin + Lapatinib; first compound 0.3162 µM,1.02
same,relative viability,Shikonin + Lapatinib; first compound 1 µM,0.867
same,relative viability,[2]; first compound 0.08 µM,0.532
same,relative viability,[2]; first compound 0.253 µM,0.619
same,relative viability,[2]; first compound 0.8 µM,0.619
same,relative viability,[2]; first compound 2.53 µM,0.68
same,relative viability,[2]; first compound 8 µM,0.622
